The record followed here is patent US8785630B2, “Insecticidal triazines and pyrimidines” (Vestaron Corporation, priority 2011, dated 2014).

In the assay the test system is beet armyworm (Spodoptera exigua). The experiment in a line: Insecticidal test for beet armyworm, treated diet surface. The conditions noted are these: 100 μg/cm^2 on diet surface, first instar larvae, 32 insects per treatment, observations 24, 48 and 96 hours. Type of assay: in vivo. The protocol:
The compounds identified in Table 8 were prepared according to the previous methods and were tested against beet armyworm and corn earworm as follows:
Insecticidal Test for Beet Armyworm (Spodoptera exigua).
To prepare the test solution, the test compound was Formulated at 3499 ppm in solution as 5 mg compound/1.429 mL of 9 parts acetone: 1 part deionized H2O and vortexed to homogenize. 50 μL of the 3499 ppm (equivalent to 100 μg/cm^2 dose on diet surface area) test solution was pipetted upon the surface of 1 mL of solidified cool Southland Products Incorporated Beet Armyworm Diet (201 Stuart Island Road Lake Village, Ark. 71653) using an Eppendorf Repeater Plus with a 1 mL pipette tip. All pipetting of treatments was done in a Labconco Hood. Thirty minutes were allowed for the acetone to evaporate leaving a dose of 100 μg/cm^2 on the surface of the artificial diet. Two 24 hour old first instar Beet Armyworm (Spodoptera Exigua) larvae were placed in each well of the 128 well Bio-BA 128 Bioassay trays (CD International, Pitman, N.J., 08071, USA) using a #0 fine camel hair paint brush. Bioassay trays were sectioned into treatment groups of 8 with 16 replicates per treatment group (32 insects per treatment). Trays containing the treated diet and larvae were covered with a Bio-CV-16 cover (CD International, Pitman, N.J., 08071, USA) and then placed on a rack under florescent lights at 27° C., 20% relative humidity (RH) in the room, and 16 hr light: 8 hr dark for 96 hours. Observations were made 24, 48 and 96 hours after treatment and infestation. The number of insects dead were counted out of the 32 insects total per treatment and the results are given in a table as a percent mortality at a dose of 100 μg/cm^2. When finished, the tray was moved to the −5° C. freezer and left for 24 hr to insure mortality of the remaining S. exigua. After 24 hours, dispose of entire tray into waste bin.
Keys to the table: Mortality refers to activity against beet army worm (Spodoptera exigua) as defined above at the concentration of 100 μg/cm^2 (A=76-100% mortality, B=51-75% mortality, C=26-50% mortality and D=0-25% mortality).
For the compound `NCCNc1nc(NN=Cc2ccc(OC(F)(F)F)cc2)nc(-c2c(F)cccc2Cl)n1` [Example 28, N1-(4-(2-chloro-6-fluorophenyl)-6-(2-(4-(trifluoromethoxy)benzylidene)hydrazinyl)-1,3,5-triazin-2-yl)ethane-1,2-diamine], the mortality (commonly the share of the test organisms that died) at 100 µg/cm2 lay within 0 to 25%.
Regarding `COc1cccc(-c2nc(NN=Cc3ccc(OC(F)(F)F)cc3)nc(Nc3ccc(Cl)cc3)n2)c1` [Example 29, N-(4-chlorophenyl)-4-(3-methoxyphenyl)-6-(2-(4-(trifluoromethoxy)benzylidene)hydrazinyl)-1,3,5-triazin-2-amine], the mortality at 100 µg/cm2 fell in the range of 0 to 25%.
With `COc1ccc(-c2nc(NN=Cc3ccc(OC(F)(F)F)cc3)nc(Nc3ccc(Cl)cc3)n2)cc1` [Example 30, N-(4-chlorophenyl)-4-(4-methoxyphenyl)-6-(2-(4-(trifluoromethoxy)benzylidene)hydrazinyl)-1,3,5-triazin-2-amine] the figure was 0 to 25%; with `Fc1cccc(-c2nc(NN=Cc3ccc(OC(F)(F)F)cc3)nc(Nc3ccc(Cl)cc3)n2)c1` [Example 31, N-(4-chlorophenyl)-4-(3-fluorophenyl)-6-(2-(4-(trifluoromethoxy)benzylidene)hydrazinyl)-1,3,5-triazin-2-amine], 51 to 75%; with `FC(F)(F)Oc1ccc(C=NNc2nc(Nc3ccc(Cl)cc3)nc(-c3ccc(Cl)c(Cl)c3)n2)cc1` [Example 32, N-(4-chlorophenyl)-4-(3,4-dichlorophenyl)-6-(2-(4-(trifluoromethoxy)benzylidene)hydrazinyl)-1,3,5-triazin-2-amine], 0 to 25%.
Next, `Cc1ccc(-c2nc(NN=Cc3ccc(OC(F)(F)F)cc3)nc(Nc3ccc(Cl)cc3)n2)cc1` [Example 33, N-(4-chlorophenyl)-4-(p-tolyl)-6-(2-(4-(trifluoromethoxy)benzylidene)hydrazinyl)-1,3,5-triazin-2-amine]: 0 to 25%; `Fc1ccc(Nc2nc(NN=Cc3ccc(OC(F)(F)F)cc3)nc(-c3c(F)cccc3Cl)n2)cc1Cl` [Example 34, N-(3-chloro-4-fluorophenyl)-4-(2-chloro-6-fluorophenyl)-6-(2-(4-(trifluoromethoxy)benzylidene)hydrazinyl)-1,3,5-triazin-2-amine]: 76 to 100%; `Fc1ccc(Nc2nc(NN=Cc3ccc(OC(F)(F)F)cc3)nc(-c3c(F)cccc3Cl)n2)cc1C(F)(F)F` [Example 35, 4-(2-chloro-6-fluorophenyl)-N-(4-fluoro-3-(trifluoromethyl)phenyl)-6-(2-(4-(trifluoromethoxy)benzylidene)hydrazinyl)-1,3,5-triazin-2-amine]: 76 to 100%.
Consider `Fc1cccc(Cl)c1-c1nc(NN=Cc2ccc(OC(F)(F)C(F)Cl)cc2)nc(Nc2ccc(Cl)nc2)n1` (stereo not drawn) [Example 36, 4-(2-(4-(2-chloro-1,1,2-trifluoroethoxy)benzylidene)hydrazinyl)-6-(2-chloro-6-fluorophenyl)-N-(6-chloropyridin-3-yl)-1,3,5-triazin-2-amine], for which the mortality at 100 µg/cm2 was 76 to 100%.
For the compound `Fc1cccc(Cl)c1-c1nc(NN=Cc2ccc(OC(F)(F)C(F)Cl)cc2)nc(Nc2ccc(Cl)cc2)n1` (stereo not drawn) [Example 37, 4-(2-(4-(2-chloro-1,1,2-trifluoroethoxy)benzylidene)hydrazinyl)-6-(2-chloro-6-fluorophenyl)-N-(4-chlorophenyl)-1,3,5-triazin-2-amine], the mortality at 100 µg/cm2 lay in the range of 76 to 100%.
Regarding `Fc1cccc(Cl)c1-c1nc(NN=Cc2ccc(OC(F)(F)F)cc2)nc(Nc2ccc(Cl)c(Cl)c2)n1` [Example 38, 4-(2-chloro-6-fluorophenyl)-N-(3,4-dichlorophenyl)-6-(2-(4-(trifluoromethoxy)benzylidene)hydrazinyl)-1,3,5-triazin-2-amine], the mortality at 100 µg/cm2 is 76 to 100%.
The compound `Fc1cccc(Cl)c1-c1nc(NN=Cc2ccc(OC(F)(F)F)cc2)nc(Nc2cc(Cl)cc(Cl)c2)n1` [Example 39, 4-(2-chloro-6-fluorophenyl)-N-(3,5-dichlorophenyl)-6-(2-(4-(trifluoromethoxy)benzylidene)hydrazinyl)-1,3,5-triazin-2-amine] displayed a mortality at 100 µg/cm2 of 76 to 100%.
`Fc1cccc(Cl)c1-c1nc(NN=Cc2ccc(OC(F)(F)F)cc2)nc(Nc2ccnc(Cl)c2)n1` [Example 40, 4-(2-chloro-6-fluorophenyl)-N-(2-chloropyridin-4-yl)-6-(2-(4-(trifluoromethoxy)benzylidene)hydrazinyl)-1,3,5-triazin-2-amine] registered a mortality at 100 µg/cm2 of 26 to 50%.
The compound `Fc1cccc(Cl)c1-c1nc(NN=Cc2ccc(OC(F)(F)F)cc2)nc(Nc2ccccc2Cl)n1` [Example 41, 4-(2-chloro-6-fluorophenyl)-N-(2-chlorophenyl)-6-(2-(4-(trifluoromethoxy)benzylidene)hydrazinyl)-1,3,5-triazin-2-amine] registered a mortality at 100 µg/cm2 of 76 to 100%.
With `Fc1ccccc1-c1nc(NN=Cc2ccc(OC(F)(F)F)cc2)nc(Nc2ccc(Cl)nc2)n1` [Example 42, N-(6-chloropyridin-3-yl)-4-(2-fluorophenyl)-6-(2-(4-(trifluoromethoxy)benzylidene)hydrazinyl)-1,3,5-triazin-2-amine] the figure was 76 to 100%; with `CNc1nc(NN=Cc2ccc(OC(F)(F)F)cc2)nc(-c2c(F)cccc2Cl)n1` [Example 43, 4-(2-chloro-6-fluorophenyl)-N-methyl-6-(2-(4-(trifluoromethoxy)benzylidene)hydrazinyl)-1,3,5-triazin-2-amine], 76 to 100%.
Next, `Fc1ccccc1-c1nc(NN=Cc2ccc(OC(F)(F)F)cc2)nc(Nc2ccc(Cl)cc2)n1` [Example 44, N-(4-chlorophenyl)-4-(2-fluorophenyl)-6-(2-(4-(trifluoromethoxy)benzylidene)hydrazinyl)-1,3,5-triazin-2-amine]: 76 to 100%; `Fc1cccc(Cl)c1-c1nc(NN=Cc2ccc(OC(F)(F)F)cc2)nc(Nc2ccc(Cl)cn2)n1` [Example 45, 4-(2-chloro-6-fluorophenyl)-N-(5-chloropyridin-2-yl)-6-(2-(4-(trifluoromethoxy)benzylidene)hydrazinyl)-1,3,5-triazin-2-amine]: 26 to 50%.
In turn, `FC(F)(F)Oc1ccc(C=NNc2cc(Nc3ccc(Cl)cc3)nc(-c3ccccc3)n2)cc1` [Example 46, N-(4-chlorophenyl)-2-phenyl-6-(2-(4-(trifluoromethoxy)benzylidene)hydrazinyl)pyrimidin-4-amine] came in with a mortality at 100 µg/cm2 of 76 to 100%.
The compound `FC(F)(F)Oc1ccc(C=NNc2nc(Nc3ccc(Cl)nc3)cc(-c3ccccc3)n2)cc1` [Example 47, N-(6-chloropyridin-3-yl)-6-phenyl-2-(2-(4-(trifluoromethoxy)benzylidene)hydrazinyl)pyrimidin-4-amine] came in with a mortality at 100 µg/cm2 of 0 to 25%.
Regarding `Fc1cccc(Cl)c1C=NNc1nc(Nc2ccc(Cl)cc2)nc(-c2ccc(OC(F)(F)F)cc2)n1` [Example 48, 4-(2-(2-chloro-6-fluorobenzylidene)hydrazinyl)-N-(4-chlorophenyl)-6-(4-(trifluoromethoxy)phenyl)-1,3,5-triazin-2-amine], the mortality at 100 µg/cm2 lay within 76 to 100%.
Consider `FC(F)(F)Oc1ccc(C=NNc2nc(Nc3ccc(Cl)cn3)cc(-c3ccccc3)n2)cc1` [Example 49, N-(5-chloropyridin-2-yl)-6-phenyl-2-(2-(4-(trifluoromethoxy)benzylidene)hydrazinyl)pyrimidin-4-amine], for which the mortality at 100 µg/cm2 was 0 to 25%.
On to `Oc1ccc(C=NNc2nc(Nc3ccc(Cl)nc3)nc(-c3c(F)cccc3Cl)n2)cc1` [Example 50], for which the mortality at 100 µg/cm2 lay within 0 to 25%.
In the case of `Fc1cccc(Cl)c1-c1nc(NN=Cc2ccc(C(F)(F)F)cc2)nc(Nc2ccc(Cl)nc2)n1` [Example 51, 4-(2-chloro-6-fluorophenyl)-N-(6-chloropyridin-3-yl)-6-(2-(4-(trifluoromethyl)benzylidene)hydrazinyl)-1,3,5-triazin-2-amine], the mortality at 100 µg/cm2 was 76 to 100%.
With `Fc1cccc(Cl)c1-c1cc(Nc2ccc(Cl)cc2)nc(NN=Cc2ccc(OC(F)(F)F)cc2)n1` [Example 52, 6-(2-chloro-6-fluorophenyl)-N-(4-chlorophenyl)-2-(2-(4-(trifluoromethoxy)benzylidene)hydrazinyl)pyrimidin-4-amine] the figure was 76 to 100%; with `Cc1ccc(C=NNc2nc(Nc3ccc(Cl)nc3)nc(-c3c(F)cccc3Cl)n2)cc1` [Example 53, 4-(2-chloro-6-fluorophenyl)-N-(6-chloropyridin-3-yl)-6-(2-(4-methylbenzylidene)hydrazinyl)-1,3,5-triazin-2-amine], 76 to 100%.
Next, `COc1ccc(C=NNc2nc(Nc3ccc(Cl)nc3)nc(-c3c(F)cccc3Cl)n2)cc1` [Example 54, 4-(2-chloro-6-fluorophenyl)-N-(6-chloropyridin-3-yl)-6-(2-(4-methoxybenzylidene)hydrazinyl)-1,3,5-triazin-2-amine]: 76 to 100%.
